According to ChEMBL document CHEMBL1201862, “PubChem BioAssay data set” (2004):
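Following 48 hours of exposure in 96-well plates, responses at five concentrations were used to interpolate endpoints linearly. GI50 is the concentration that inhibits growth by half.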 The source made the active and inactive calls. Cut-off read from the data, not from the text of the source: active = GI50 up to about 1.1 µM and inactive = higher.

Legend:
Assay in all cases: NCI-60 cell line screen, 48 h
SF-539 = tested on: SF-539
SK-MEL-5 = tested on: SK-MEL-5
NCI-H460 = tested on: NCI-H460
SF-295 = tested on: SF-295
HCT-116 = tested on: HCT-116
PC-3 = tested on: PC-3
OVCAR-5 = tested on: OVCAR-5
MDA-MB-231 = tested on: MDA-MB-231
RPMI-8226 = tested on: RPMI-8226
UACC-62 = tested on: UACC-62
HCT-15 = tested on: HCT-15
SW-620 = tested on: SW-620
786-0 = tested on: 786-0
A498 = tested on: A498
U-251 = tested on: U-251
CCRF-CEM = tested on: CCRF-CEM
SNB-75 = tested on: SNB-75
HCC 2998 = tested on: HCC 2998
SR = tested on: SR
MDA-MB-435 = tested on: MDA-MB-435
SK-OV-3 = tested on: SK-OV-3
SN12C = tested on: SN12C
SF-268 = tested on: SF-268
A549 = tested on: A549
IGROV-1 = tested on: IGROV-1
DU-145 = tested on: DU-145
HT-29 = tested on: HT-29
MDA-N = tested on: MDA-N
ACHN = tested on: ACHN
Malme-3M = tested on: Malme-3M
RXF 393 = tested on: RXF 393
T47D = tested on: T47D
SK-MEL-2 = tested on: SK-MEL-2
OVCAR-8 = tested on: OVCAR-8
CAKI-1 = tested on: CAKI-1
NCI-H23 = tested on: NCI-H23
OVCAR-3 = tested on: OVCAR-3
UO-31 = tested on: UO-31
SK-MEL-28 = tested on: SK-MEL-28
HOP-92 = tested on: HOP-92
UACC-257 = tested on: UACC-257
HL-60 = tested on: HL-60
Hs-578T = tested on: Hs-578T
NCI/ADR-RES = tested on: NCI/ADR-RES
M14 = tested on: M14
MOLT-4 = tested on: MOLT-4
COLO 205 = tested on: COLO 205
EKVX = tested on: EKVX
SNB-19 = tested on: SNB-19
LOX IMVI = tested on: LOX IMVI
NCI-H226 = tested on: NCI-H226
OVCAR-4 = tested on: OVCAR-4
HOP-62 = tested on: HOP-62
NCI-H522 = tested on: NCI-H522
K562 = tested on: K562
TK-10 = tested on: TK-10
KM12 = tested on: KM12

CCCCCC(/C=N/Nc1ccccc1)C(O)(C(F)(F)F)C(F)(F)F (stereo not drawn)
GI50 (SF-539): > 100 µM (inactive)
GI50 (SK-MEL-5): > 100 µM (inactive)
GI50 (NCI-H460): > 100 µM (inactive)
GI50 (SF-295): > 100 µM (inactive)
GI50 (HCT-116): > 100 µM (inactive)
GI50 (PC-3): > 100 µM (inactive)
GI50 (OVCAR-5): > 100 µM (inactive)
GI50 (MDA-MB-231): > 100 µM (inactive)
GI50 (RPMI-8226): > 100 µM (inactive)
GI50 (UACC-62): > 100 µM (inactive)
GI50 (HCT-15): > 100 µM
GI50 (SW-620): > 100 µM (inactive)
GI50 (786-0): > 100 µM (inactive)
GI50 (A498): > 100 µM (inactive)
GI50 (U-251): > 100 µM (inactive)
GI50 (CCRF-CEM): 83.2 µM (inactive)
GI50 (SNB-75): > 100 µM (inactive)
GI50 (HCC 2998): > 100 µM (inactive)
GI50 (SR): > 100 µM (inactive)
GI50 (MDA-MB-435): > 100 µM (inactive)
GI50 (SK-OV-3): > 100 µM (inactive)
GI50 (SN12C): > 100 µM (inactive)
GI50 (SF-268): > 100 µM (inactive)
GI50 (A549): > 100 µM (inactive)
GI50 (IGROV-1): > 100 µM (inactive)
GI50 (DU-145): > 100 µM (inactive)
GI50 (HT-29): > 100 µM (inactive)
GI50 (MDA-N): > 100 µM (inactive)
GI50 (ACHN): > 100 µM (inactive)
GI50 (Malme-3M): > 100 µM (inactive)
GI50 (RXF 393): > 100 µM (inactive)
GI50 (T47D): > 100 µM (inactive)
GI50 (SK-MEL-2): > 100 µM (inactive)
GI50 (OVCAR-8): > 100 µM (inactive)
GI50 (CAKI-1): > 100 µM (inactive)
GI50 (NCI-H23): > 100 µM (inactive)
GI50 (OVCAR-3): > 100 µM (inactive)
GI50 (UO-31): > 100 µM (inactive)
GI50 (SK-MEL-28): > 100 µM (inactive)
GI50 (HOP-92): > 100 µM (inactive)
GI50 (UACC-257): > 100 µM (inactive)
GI50 (HL-60): > 100 µM (inactive)
GI50 (Hs-578T): > 100 µM (inactive)
GI50 (NCI/ADR-RES): > 100 µM (inactive)
GI50 (M14): > 100 µM (inactive)
GI50 (MOLT-4): 61.8 µM (inactive)
GI50 (COLO 205): > 100 µM (inactive)
GI50 (EKVX): > 100 µM (inactive)
GI50 (SNB-19): > 100 µM (inactive)
GI50 (LOX IMVI): > 100 µM (inactive)
GI50 (NCI-H226): > 100 µM (inactive)
GI50 (OVCAR-4): > 100 µM (inactive)
GI50 (HOP-62): > 100 µM (inactive)
GI50 (NCI-H522): > 100 µM (inactive)
GI50 (K562): > 100 µM (inactive)

COc1cc(OC)c(CSCC(NC(=O)OCC2c3ccccc3-c3ccccc32)C(=O)O)c(OC)c1 (stereo not drawn)
GI50 (SF-539): > 10 µM (inactive)
GI50 (SK-MEL-5): > 10 µM (inactive)
GI50 (TK-10): > 10 µM (inactive)
GI50 (SF-295): > 10 µM (inactive)
GI50 (HCT-116): > 10 µM (inactive)
GI50 (PC-3): > 10 µM (inactive)
GI50 (OVCAR-5): > 10 µM (inactive)
GI50 (MDA-MB-231): > 10 µM (inactive)
GI50 (HCT-15): > 10 µM
GI50 (SW-620): > 10 µM (inactive)
GI50 (A498): > 10 µM (inactive)
GI50 (U-251): > 10 µM (inactive)
GI50 (SNB-75): 6.95 µM (inactive)
GI50 (MDA-MB-435): > 10 µM (inactive)
GI50 (SN12C): > 10 µM (inactive)
GI50 (SF-268): > 10 µM (inactive)
GI50 (A549): > 10 µM (inactive)
GI50 (IGROV-1): > 10 µM (inactive)
GI50 (DU-145): > 10 µM (inactive)
GI50 (HT-29): > 10 µM (inactive)
GI50 (MDA-N): > 10 µM (inactive)
GI50 (ACHN): > 10 µM (inactive)
GI50 (RXF 393): > 10 µM (inactive)
GI50 (OVCAR-8): > 10 µM (inactive)
GI50 (CAKI-1): > 10 µM (inactive)
GI50 (NCI-H23): > 10 µM (inactive)
GI50 (OVCAR-3): > 10 µM (inactive)
GI50 (UO-31): 5.68 µM (inactive)
GI50 (SK-MEL-28): > 10 µM (inactive)
GI50 (HOP-92): > 10 µM (inactive)
GI50 (NCI/ADR-RES): > 10 µM (inactive)
GI50 (M14): > 10 µM (inactive)
GI50 (COLO 205): > 10 µM (inactive)
GI50 (EKVX): > 10 µM (inactive)
GI50 (KM12): > 10 µM (inactive)
GI50 (SNB-19): > 10 µM (inactive)
GI50 (NCI-H226): 5.22 µM (inactive)
GI50 (OVCAR-4): > 10 µM (inactive)
